Measurements as given in US20120178742A1, “METABOTROPIC GLUTAMATE RECEPTOR MODULATORS” (MERZ PHARMA GmbH & CO. KGaA, priority 2009, published 2012).

Experiments:
[1] = target: T1, human metabotropic glutamate receptor mGluR5 (Homo sapiens, UniProt P41594); experiment: Cytosolic calcium studies with stably transfected cells (CHO-K1); format: cell-based
T1 construct: expressed in transfected cells; host or cells: CHO-K1
Method: Functional Assay of mGluR5 Receptors Cytosolic Calcium Studies with Stably Transfected Cells
Chinese hamster ovary cells (CHO-K1 cells), stably transfected for inducible expression of a human metabotropic glutamate receptor mGluR5, are seeded into black clear bottom 96 well plates at a density of 35.000 cells per well. The standard growth medium used (Dulbecco's modified Eagle Medium, DMEM plus L-proline) contains the appropriate inducer isopropyl-β-D-thiogalactopyranosid (IPTG) to achieve optimal receptor expression. One day after seeding the growth medium is exchanged for reconstituted Ca-Kit (Molecular Devices, USA) and incubated for one hour. Ca-Kit is reconstituted in an assay buffer containing 20 mM HEPES pH 7.4, glutamic-pyruvate transaminase, pyridoxal phosphate and sodium pyruvate in Hank's balanced salt solution (HBBS). Agonistic compounds to the receptor elicit increases in cytosolic calcium which can be measured as increases in fluorescence signals by use of a fluorescence imaging plate reader (Molecular Devices). […] Similarly, for the characterization of positive allosteric modulators, a dilution series of the test compound is added online to 384 well plates containing the described dye loaded cells and after a preincubation time of 5 minutes stimulated by a basal cell concentration of the agonist L-glutamate giving about 20% of the maximal signal.
(§1) The fluorescence signal increase after addition of agonist reflects the increase of cytosolic calcium. Inconsistencies in the amount of cells per well are normalised by using the spatial uniformity correction of the FLIPR operating software Screenworks. The mean of replicated temporal data (n=3-5) is calculated and used for graphical representation. For the evaluation of the pharmacology, the calcium changes in response to different concentrations of agonist or antagonist are determined using a maximum minus minimum (MaxMin) calculation.
(§2) All responses (RFU-values) are determined as percentage of control (=maximum response). EC50 and IC50 are calculated according the logistic equation using Prism 4.0 (GraphPad Software, USA).

mGluR5 receptors = target: T2, mGluR5 receptors (Rattus norvegicus, UniProt P31424); experiment: Cytosolic calcium studies with cultured rat astrocytes; format: cell-based
T2 construct: Primary astrocyte cultures are prepared from cortices of newborn rats; endogenous in cells; host or cells: primary rat cortical astrocytes (Sprague-Dawley pups)
T2 sequence (P31424 21-1203): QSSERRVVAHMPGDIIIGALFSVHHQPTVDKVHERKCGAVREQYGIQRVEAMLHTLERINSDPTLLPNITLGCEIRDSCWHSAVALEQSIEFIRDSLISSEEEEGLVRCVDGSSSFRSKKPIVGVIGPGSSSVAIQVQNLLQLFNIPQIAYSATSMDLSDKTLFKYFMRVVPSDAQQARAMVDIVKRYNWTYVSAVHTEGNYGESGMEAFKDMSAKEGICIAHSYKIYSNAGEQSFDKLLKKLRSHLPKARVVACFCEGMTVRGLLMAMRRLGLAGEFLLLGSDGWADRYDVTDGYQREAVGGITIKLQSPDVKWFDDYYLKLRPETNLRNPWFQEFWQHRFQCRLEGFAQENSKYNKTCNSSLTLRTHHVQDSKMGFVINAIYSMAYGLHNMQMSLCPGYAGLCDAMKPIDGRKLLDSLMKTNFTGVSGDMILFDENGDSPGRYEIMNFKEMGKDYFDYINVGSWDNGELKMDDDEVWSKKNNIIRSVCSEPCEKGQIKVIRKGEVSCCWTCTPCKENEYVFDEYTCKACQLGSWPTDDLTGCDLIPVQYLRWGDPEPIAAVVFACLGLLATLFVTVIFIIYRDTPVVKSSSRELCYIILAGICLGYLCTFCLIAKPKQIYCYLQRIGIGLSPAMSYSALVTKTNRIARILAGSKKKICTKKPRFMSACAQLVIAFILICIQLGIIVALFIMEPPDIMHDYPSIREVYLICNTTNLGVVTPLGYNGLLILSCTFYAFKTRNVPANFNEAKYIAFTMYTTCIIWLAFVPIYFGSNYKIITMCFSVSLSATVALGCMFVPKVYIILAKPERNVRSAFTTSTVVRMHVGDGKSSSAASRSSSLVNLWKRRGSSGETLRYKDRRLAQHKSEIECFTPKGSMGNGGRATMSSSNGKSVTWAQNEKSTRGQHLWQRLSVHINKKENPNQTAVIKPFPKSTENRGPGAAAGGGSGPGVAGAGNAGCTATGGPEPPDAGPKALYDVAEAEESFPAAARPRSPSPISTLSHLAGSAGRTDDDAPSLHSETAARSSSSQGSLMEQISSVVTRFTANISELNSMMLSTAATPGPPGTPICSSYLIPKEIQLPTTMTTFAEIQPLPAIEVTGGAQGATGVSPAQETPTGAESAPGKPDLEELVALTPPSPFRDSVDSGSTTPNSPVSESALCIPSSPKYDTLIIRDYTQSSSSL
Method: Primary astrocyte cultures are prepared from cortices of newborn rats as described by Booher and Sensenbrenner (1972, Neurobiology 2(3):97-105). Briefly, Sprague-Dawley rat pups (2-4 d old) are decapitated and neocortices are dissected, disintegrated with a nylon filter (pore size 80 μm) and carefully triturated. The cell suspension is plated on poly-D-lysine pre-coated flasks (Costar, Netherlands) and cultivated in Dulbecco's Modified Eagle's Medium (DMEM, Invitrogen, Germany) supplemented with 10% foetal calf serum (FCS, Sigma, Germany), 4 mM glutamine and […] gentamycin (both Biochrom, Germany) at 37° C. in a humidified atmosphere of 5% CO2/95% air for 7 days with exchanging the medium at day 2 and 6.
After 7 days in vitro (DIV), cells are shaken overnight at 250 rpm to remove oligodendrocytes and microglia. The next day, astrocytes are rinsed twice with CMF-PBS (calcium- and magnesium-free phosphate buffered saline, Biochrom, Germany), trypsinized and subplated on poly-D-lysine pre-coated 96-well plates (Greiner, Germany) at a density of 40,000 cells/well. 24 h after establishing the secondary culture the astrocytes are rinsed with PBS″ (phosphate buffered saline, Biochrom, Germany) and fed with astrocyte-defined medium (ADM) consisting of DMEM containing 1× G5-supplement (Invitrogen, Germany), 0.5 μg/ml heparan sulfate, and 1.5 μg/ml fibronectin (both Sigma, Germany) (Miller et al., (1993) Brain Res. 618(1):175-8). 3 days later the medium is exchanged and the cells incubated for another 2-3 days, so that at the time of experiments astrocytes are 14-15 DIV.
The increase of cytosolic calcium after stimulation with the mGluR5 agonist L-quisqualate is measured using a fluorometric imaging plate reader (FLIPR) and the Ca-Kit (both Molecular Devices). Prior to addition of agonist or antagonist the medium is aspirated and cells are loaded for 2 h at RT with 150 μl of loading buffer consisting of Ca-sensitive dye reconstituted in sodium chloride (123 mM), potassium chloride (5.4 mM), magnesium chloride (0.8 mM), calcium chloride (1.8 mM), D-glucose (15 mM), and HEPES (20 mM), pH 7.3. Subsequently, plates are transferred to FLIPR to detect calcium increase with the addition of L-quisqualate (100 nM) measured as relative fluorescence units (RFU). If antagonists are tested, these compounds are pre-incubated for 10 minutes at RT before addition of the respective agonist.
Thereafter, concentration-response curves for the positive modulator are performed in the presence of a fixed concentration of quisqualate showing the biggest window for potentiation (normally 10-30 nM).
as §1, §2

monoamine oxidase MAO-B = target: T3, monoamine oxidase MAO-B (Homo sapiens, UniProt P27338); experiment: Inhibition of monoamine oxidase MAO-B; format: biochemical; conditions: recombinant human enzyme expressed in insect Hi5 cells, 50 uM kynuramine
T3 construct: host or cells: insect Hi5 cells
T3 sequence (P27338 1-520): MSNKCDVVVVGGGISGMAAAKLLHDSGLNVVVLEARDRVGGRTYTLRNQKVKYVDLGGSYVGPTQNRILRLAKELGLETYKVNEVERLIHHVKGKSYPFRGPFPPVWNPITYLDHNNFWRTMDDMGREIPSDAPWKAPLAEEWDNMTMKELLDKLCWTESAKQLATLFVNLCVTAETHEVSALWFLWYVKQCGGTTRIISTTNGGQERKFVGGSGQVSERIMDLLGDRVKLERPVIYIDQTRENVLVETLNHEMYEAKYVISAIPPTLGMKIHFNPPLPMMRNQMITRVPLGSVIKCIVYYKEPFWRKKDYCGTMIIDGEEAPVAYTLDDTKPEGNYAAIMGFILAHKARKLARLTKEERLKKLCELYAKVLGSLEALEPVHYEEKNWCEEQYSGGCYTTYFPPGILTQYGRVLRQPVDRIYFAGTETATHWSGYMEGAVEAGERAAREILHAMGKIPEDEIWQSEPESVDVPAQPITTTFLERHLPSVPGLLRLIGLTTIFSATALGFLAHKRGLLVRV
Method: The inhibition of the enzyme monoamine oxidase MAO-B is tested with an enzyme from recombinant source, namely of the human enzyme expressed in insect Hi5 cells. Following a pre-incubation of the test compounds with the enzyme for 15 minutes at 37° C. in the incubation buffer (100 mM potassium phosphate, pH 7.4), the enzymatic reaction with 50 uM kynuramine is carried out for 60 minutes. The reaction product 4-hydroxyquinoline is quantified by spectrofluorometry. The compound vehicle used for this assay is 1% DMSO.

T1 sequence (P41594 21-1212): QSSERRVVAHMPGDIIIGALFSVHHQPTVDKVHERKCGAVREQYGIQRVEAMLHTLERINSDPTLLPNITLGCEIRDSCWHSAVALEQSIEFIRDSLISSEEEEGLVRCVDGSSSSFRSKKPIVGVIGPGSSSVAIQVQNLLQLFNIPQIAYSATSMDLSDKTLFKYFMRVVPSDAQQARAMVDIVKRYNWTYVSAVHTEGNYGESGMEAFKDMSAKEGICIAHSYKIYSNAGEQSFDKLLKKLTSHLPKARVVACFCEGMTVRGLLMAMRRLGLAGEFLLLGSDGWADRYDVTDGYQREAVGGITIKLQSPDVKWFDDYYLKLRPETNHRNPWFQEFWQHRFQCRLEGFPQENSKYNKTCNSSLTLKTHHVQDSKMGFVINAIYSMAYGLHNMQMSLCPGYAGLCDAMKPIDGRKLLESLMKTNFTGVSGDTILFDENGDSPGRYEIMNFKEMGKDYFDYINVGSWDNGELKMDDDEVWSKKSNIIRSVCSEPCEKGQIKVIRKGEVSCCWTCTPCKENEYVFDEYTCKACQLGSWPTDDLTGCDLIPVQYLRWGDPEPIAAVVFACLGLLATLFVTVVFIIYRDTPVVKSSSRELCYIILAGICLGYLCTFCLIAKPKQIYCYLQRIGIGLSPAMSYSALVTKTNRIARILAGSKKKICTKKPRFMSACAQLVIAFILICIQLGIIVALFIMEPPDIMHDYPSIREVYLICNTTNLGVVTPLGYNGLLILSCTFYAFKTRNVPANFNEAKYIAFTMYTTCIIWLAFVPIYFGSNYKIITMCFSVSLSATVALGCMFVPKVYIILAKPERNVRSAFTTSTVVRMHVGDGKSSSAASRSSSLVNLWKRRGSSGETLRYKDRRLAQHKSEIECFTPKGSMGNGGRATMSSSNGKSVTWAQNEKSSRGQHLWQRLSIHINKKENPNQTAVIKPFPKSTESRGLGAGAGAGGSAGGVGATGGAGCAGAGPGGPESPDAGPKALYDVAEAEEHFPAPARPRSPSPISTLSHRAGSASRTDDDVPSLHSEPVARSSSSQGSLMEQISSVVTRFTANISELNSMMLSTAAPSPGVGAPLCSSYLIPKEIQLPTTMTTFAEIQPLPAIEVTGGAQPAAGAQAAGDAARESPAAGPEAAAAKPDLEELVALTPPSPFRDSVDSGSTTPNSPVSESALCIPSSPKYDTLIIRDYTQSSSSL

Row | SMILES | EC50 [1] | EC50 (mGluR5 receptors) | IC50 (monoamine oxidase MAO-B)
1 | C(#Cc1cnc2cccnc2c1)c1ccncc1 [Example 100, 3-(Pyridin-4-ylethynyl)-1,5-naphthyridine] | 230 nM | 310 nM | –
2 | C(#Cc1cnc2ccnn2c1)C1=CCCCC1 [Example 8, 6-Cyclohex-1-enylethynyl-pyrazolo[1,5-a]pyrimidine] | 23 nM | 70 nM | –
3 | Fc1ccccc1C#Cc1ccc2ncnn2c1 [Example 54, 6-(2-Fluoro-phenylethynyl)-[1,2,4]triazolo[1,5-a]pyridine] | 740 nM | 470 nM | –
4 | O=C(c1nc2ncc(C#CC3=CCCCC3)cc2o1)N1CCCCC1 [Example 72, (6-Cyclohex-1-enylethynyl-oxazolo[4,5-b]pyridin-2-yl)-piperidin-1-yl-methanone] | 330 nM | 320 nM | –
5 | Fc1ccc(C#Cc2ccc3ncnn3c2)cc1 [Example 55, 6-(4-Fluoro-phenylethynyl)-[1,2,4]triazolo[1,5-a]pyridine] | 640 nM | 400 nM | –
6 | C(#Cc1cnc2ncnn2c1)c1ccccc1 [Example 33, 6-Phenylethynyl-[1,2,4]triazolo[1,5-a]pyrimidine] | 130 nM | 230 nM | –
7 | C(#Cc1cnc2ccnn2c1)C1=CCSCC1 [Example 10, 6-(3,6-Dihydro-2H-thiopyran-4-ylethynyl)-pyrazolo[1,5-a]pyrimidine] | 110 nM | 50 nM | –
8 | Fc1cccc(C#Cc2cnc3ccnn3c2)c1 [Example 3, 6-(3-Fluoro-phenylethynyl)-pyrazolo[1,5-a]pyrimidine] | 21 nM | 76 nM | –
9 | C(#Cc1cnc2nc(N3CCCCC3)sc2c1)c1ccccc1 [Example 81, 6-Phenylethynyl-2-piperidin-1-yl-thiazolo[4,5-b]pyridine] | 91 nM | – | 520 nM
10 | C(#Cc1ccc2ncnn2c1)c1ccccc1 [Example 37, 6-Phenylethynyl-[1,2,4]triazolo[1,5-a]pyridine] | 110 nM | 110 nM | –
11 | Cc1ccc(C#Cc2cnc3cccnc3c2)cc1 [Example 93, 3-(p-Tolylethynyl)-[1,5]naphthyridine] | 36 nM | 77 nM | –
12 | O=C(c1nc2ncc(C#Cc3ccccc3)cc2o1)N1CCCCC1 [Example 43, (6-Phenylethynyl-oxazolo[4,5-b]pyridin-2-yl)-piperidin-1-yl-methanone] | 150 nM | 60 nM | –
13 | Cc1cccc(C#Cc2cnc3cccnc3c2)c1 [Example 95, 3-(m-Tolylethynyl)-[1,5]naphthyridine] | 5.5 nM | 2.3 nM | –
14 | C(#Cc1cnc2nccnc2c1)C1=CCCCC1 [Example 40, 7-Cyclohex-1-enylethynyl-pyrido[2,3-b]pyrazine] | 120 nM | 650 nM | –
15 | C(#Cc1cnc2ccnn2c1)c1ccccc1 [Example 1, 6-Phenylethynyl-pyrazolo[1,5-a]pyrimidine] | 38 nM | 89 nM | –
16 | Fc1ccc(C#Cc2cnc3ccnn3c2)cc1 [Example 4, 6-(4-Fluoro-phenylethynyl)-pyrazolo[1,5-a]pyrimidine] | 120 nM | 63 nM | –

The next lines start with the values.

Row | EC50 [1] | EC50 (mGluR5 receptors) | IC50 (monoamine oxidase MAO-B) | SMILES
17 | 2300 nM | 530 nM | – | Cc1ccccc1C#Cc1cnc2ncsc2c1 [Example 75, 6-(o-Tolylethynyl)thiazolo[4,5-b]pyridine]
18 | 410 nM | 210 nM | – | Cc1ccccc1C#Cc1cnc2cccnc2c1 [Example 94, 3-(o-Tolylethynyl)-[1,5]naphthyridine]
19 | 20 nM | 14 nM | – | Cc1cccc(C#Cc2cnc3ncsc3c2)c1 [Example 73, 6-(m-Tolylethynyl)thiazolo[4,5-b]pyridine]
20 | 9.8 nM | 12 nM | – | Fc1ccc(C#Cc2cnc3cccnc3c2)cc1 [Example 69, 3-(4-Fluoro-phenylethynyl)-[1,5]naphthyridine]
21 | 660 nM | 440 nM | – | Fc1cc(F)cc(C#Cc2cnc3ncsc3c2)c1 [Example 80, 6-((3,5-Difluorophenyl)ethynyl)thiazolo[4,5-b]pyridine]
22 | 10 nM | 73 nM | – | C(#Cc1cnc2ncsc2c1)c1ccccc1 [Example 38, 6-Phenylethynyl-thiazolo[4,5-b]pyridine]
23 | 35 nM | 100 nM | – | C(#Cc1cnc2nccnc2c1)c1ccccc1 [Example 39, 7-Phenylethynyl-pyrido[2,3-b]pyrazine]
24 | 58 nM | 91 nM | 540 nM | Fc1ccc(C#Cc2cnc3ncsc3c2)cc1 [Example 46, 6-(4-Fluoro-phenylethynyl)-thiazolo[4,5-b]pyridine]
25 | 100 nM | 54 nM | 89 nM | Fc1cccc(C#Cc2cnc3nccnc3c2)c1 [Example 60, 7-(3-Fluoro-phenylethynyl)-pyrido[2,3-b]pyrazine]
26 | 300 nM | 190 nM | 37 nM | Fc1ccccc1C#Cc1cnc2nccnc2c1 [Example 61, 7-(2-Fluoro-phenylethynyl)-pyrido[2,3-b]pyrazine]
27 | 19 nM | 24 nM | – | Fc1ccccc1C#Cc1cnc2cccnc2c1 [Example 68, 3-(2-Fluoro-phenylethynyl)-[1,5]naphthyridine]
28 | 310 nM | 220 nM | – | Fc1ccc(C#Cc2cnc3ncsc3c2)c(F)c1 [Example 79, 6-((2,4-Difluorophenyl)ethynyl)thiazolo[4,5-b]pyridine]
29 | 1300 nM | 1500 nM | – | Fc1cccc(C#Cc2cnc3ncnn3c2)c1 [Example 47, 6-(3-Fluoro-phenylethynyl)-[1,2,4]triazolo[1,5-a]pyrimidine]
30 | 550 nM | 730 nM | – | Fc1ccc(C#Cc2cnc3nccnc3c2)cc1 [Example 62, 7-(4-Fluoro-phenylethynyl)-pyrido[2,3-b]pyrazine]
